Assay results from patent US20250098679A1, “HERBICIDAL PYRIDONE DERIVATIVES” (SYNGENTA CROP PROTECTION AG, priority 2021, published 2025).

Tests used:
Assay type in all cases: in vivo
Conditions in all cases: evaluated after 13 days
Zea mays (ZEAMX) [1] = experiment: Pre-emergence Test, Zea mays (ZEAMX)
[2] = test system: Amaranthus retoflexus (AMARE); experiment: Post-emergence Test, Amaranthus retoflexus (AMARE); design: key to percentage damage caused to the plant, AMARE (five-point scale): 5=81-100%, 4=61-80%, 3=41-60%, 2=21-40%, 1=0-20% damage
Method in brief: (§1)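 Application was a spray of acetone/water (50:50) with 0.5% Tween 20 onto pots of test species sown in standard soil. Unless otherwise stated, the rate was 1000 g/ha. After 13 days under glasshouse conditions (24/16 °C, 65% humidity), injury was scored from 1 (0-20%) to 5 (81-100%).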

Setaria faberi (SETFA) [3] = experiment: Post-emergence Test, Setaria faberi (SETFA); design: key to percentage damage caused to the plant, SETFA (five-point scale): 5=81-100%, 4=61-80%, 3=41-60%, 2=21-40%, 1=0-20% damage
Method in brief: as §1

[4] = test system: Echinochloa crus-galli (ECHCG); experiment: Pre-emergence Test, Echinochloa crus-galli (ECHCG)
Zea mays (ZEAMX) [5] = experiment: Post-emergence Test, Zea mays (ZEAMX); design: key to percentage damage caused to the plant, ZEAMX (five-point scale): 5=81-100%, 4=61-80%, 3=41-60%, 2=21-40%, 1=0-20% damage
Method in brief: as §1

[6] = test system: Amaranthus retoflexus (AMARE); experiment: Pre-emergence Test, Amaranthus retoflexus (AMARE)
[7] = test system: Ipomoea hederacea (IPOHE); experiment: Pre-emergence Test, Ipomoea hederacea (IPOHE)
[8] = test system: Amaranthus palmeri (AMAPA); experiment: Post-emergence Test, Amaranthus palmeri (AMAPA); design: key: 5=81-100%, 4=61-80%, 3=41-60%, 2=21-40%, 1=0-20% damage
Method in brief: as §1

Setaria faberi (SETFA) [9] = experiment: Pre-emergence Test, Setaria faberi (SETFA)
[10] = test system: Echinochloa crus-galli (ECHCG); experiment: Post-emergence Test, Echinochloa crus-galli (ECHCG); design: key to percentage damage caused to the plant, ECHCG (five-point scale): 5=81-100%, 4=61-80%, 3=41-60%, 2=21-40%, 1=0-20% damage
Method in brief: as §1

[11] = test system: Amaranthus palmeri (AMAPA); experiment: Pre-emergence Test, Amaranthus palmeri (AMAPA)
[12] = test system: Ipomoea hederacea (IPOHE); experiment: Post-emergence Test, Ipomoea hederacea (IPOHE); design: key to percentage damage caused to the plant, IPOHE (five-point scale): 5=81-100%, 4=61-80%, 3=41-60%, 2=21-40%, 1=0-20% damage
Method in brief: as §1

Structure (SMILES)	Pre-emergence Test ZEAMX, percentage damage caused to the plant (five-point scale) (Zea mays (ZEAMX) [1]; 1000 g/ha)	percentage damage caused to the plant, AMARE (five-point scale) ([2]; 250 g/Ha)	percentage damage caused to the plant, AMARE (five-point scale) ([2]; 1000 g/ha)	percentage damage caused to the plant, SETFA (five-point scale) (Setaria faberi (SETFA) [3]; 250 g/Ha)	percentage damage caused to the plant, SETFA (five-point scale) (Setaria faberi (SETFA) [3]; 1000 g/ha)	Pre-emergence Test ECHCG, percentage damage caused to the plant (five-point scale) ([4]; 1000 g/ha)	percentage damage caused to the plant, ZEAMX (five-point scale) (Zea mays (ZEAMX) [5]; 250 g/Ha)	percentage damage caused to the plant, ZEAMX (five-point scale) (Zea mays (ZEAMX) [5]; 1000 g/ha)	Pre-emergence Test AMARE, percentage damage caused to the plant (five-point scale) ([6]; 1000 g/ha)	Pre-emergence Test IPOHE, percentage damage caused to the plant (five-point scale) ([7]; 1000 g/ha)	percentage damage caused to the plant, AMAPA (five-point scale) ([8]; 250 g/Ha)	percentage damage caused to the plant, AMAPA (five-point scale) ([8]; 1000 g/ha)	Pre-emergence Test SETFA, percentage damage caused to the plant (five-point scale) (Setaria faberi (SETFA) [9]; 1000 g/ha)	percentage damage caused to the plant, ECHCG (five-point scale) ([10]; 250 g/Ha)	percentage damage caused to the plant, ECHCG (five-point scale) ([10]; 1000 g/ha)	Pre-emergence Test AMAPA, percentage damage caused to the plant (five-point scale) ([11]; 1000 g/ha)	percentage damage caused to the plant, IPOHE (five-point scale) ([12]; 250 g/Ha)	percentage damage caused to the plant, IPOHE (five-point scale) ([12]; 1000 g/ha)	also measured
CCn1c(Cn2cc(C(F)F)cn2)cc(=O)c(C(=O)O)c1-c1ccc(Cl)c(Cl)c1 [Compound 109, 2-(3,4-dichlorophenyl)-6-[[4-(difluoromethyl)pyrazol-1-yl]methyl]-1-ethyl-4-oxo-pyridine-3-carboxylic acid]	0	0	1 (1=0-20%)	1 (1=0-20%)	4 (4=61-80%)	5 (5=81-100%)	1 (1=0-20%)	3 (3=41-60%)	0	4 (4=61-80%)	0	3 (3=41-60%)	5 (5=81-100%)	3 (3=41-60%)	4 (4=61-80%)	0	2 (2=21-40%)	3 (3=41-60%)	Pre-emergence Test ZEAMX, percentage damage caused to the plant (five-point scale) (Zea mays (ZEAMX) [1]; 250 g/Ha (*)): 0; Pre-emergence Test ECHCG, percentage damage caused to the plant (five-point scale) ([4]; 250 g/Ha (*)): 3 (3=41-60%); Pre-emergence Test AMARE, percentage damage caused to the plant (five-point scale) ([6]; 250 g/Ha (*)): 0; Pre-emergence Test IPOHE, percentage damage caused to the plant (five-point scale) ([7]; 250 g/Ha (*)): 1 (1=0-20%); Pre-emergence Test SETFA, percentage damage caused to the plant (five-point scale) (Setaria faberi (SETFA) [9]; 250 g/Ha (*)): 2 (2=21-40%); Pre-emergence Test AMAPA, percentage damage caused to the plant (five-point scale) ([11]; 250 g/Ha (*)): 0
CCOC(=O)c1cc(C(=O)OCC)n(Cc2cc(=O)c(C(=O)O)c(-c3ccc(Cl)c(Cl)c3)n2CC)n1 [Compound 112, 6-[[3,5-bis(ethoxycarbonyl)pyrazol-1-yl]methyl]-2-(3,4-dichlorophenyl)-1-ethyl-4-oxo-pyridine-3-carboxylic acid]	0		1 (1=0-20%)		1 (1=0-20%)	0		0	1 (1=0-20%)	0		1 (1=0-20%)	0		2 (2=21-40%)	1 (1=0-20%)		2 (2=21-40%)	
CCn1c(Cn2nc(C(=O)OC)cc2C(=O)OC)cc(=O)c(C(=O)O)c1-c1ccc(Cl)c(Cl)c1 [Compound 115, 6-[[3,5-bis(methoxycarbonyl)pyrazol-1-yl]methyl]-2-(3,4-dichlorophenyl)-1-ethyl-4-oxo-pyridine-3-carboxylic acid]	0	1 (1=0-20%)	0	0	0	0	0	1 (1=0-20%)	0	0	1 (1=0-20%)	2 (2=21-40%)	1 (1=0-20%)	0	0	1 (1=0-20%)	0	0	
